Here are results for 29 molecules from US5136080A, “Nitrile compounds” (Burroughs Wellcome Co., priority 1990, dated 1992).

The target of data set [1] is T1, Rat Liver DHFR (Rattus norvegicus, UniProt Q920D2).
T1 sequence (Q920D2 1-187): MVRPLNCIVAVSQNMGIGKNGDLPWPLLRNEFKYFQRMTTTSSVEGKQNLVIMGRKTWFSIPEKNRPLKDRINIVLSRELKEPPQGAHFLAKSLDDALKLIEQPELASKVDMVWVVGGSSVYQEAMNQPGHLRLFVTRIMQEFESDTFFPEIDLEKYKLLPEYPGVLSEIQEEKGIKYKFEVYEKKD
Put plainly: biochemical. Particulars: DHFR enzyme activity, P95 limits in parentheses. As to the method: (§1) Compounds of Formula (I) were tested for their effect on veratrine-evoked release of glutamate from rat brain slices according to the protocol described in Epilepsia 27(5): 490-497, 1986. The protocol for testing for inhibition of DHFR activity was a modification of that set out in Biochemical Pharmacology Vol. 20 pp 561-574, 1971.

Data set [2] concerns veratrine-evoked release of glutamate from rat brain slices. Put plainly: tissue or blood. Particulars: P95 limits in parentheses. The format is cell-based. Here is the method: as §1
Data set [3] is described as follows: in vivo. The arrangement: species or system dogs. Particulars: dog. Here is the method:
(§2) The compound of Example 2, has been tested in both rats and dogs. In rats the no observed effect dose was 2.5 mg/kg/day and in dogs, the no observed effect dose was 14 mg/kg/day.

Data set [4] is described as follows: Duration of action / clearance from the central nervous system (statement). Particulars: statement in words.
Data set [5] in a line: Toxicology in rats. Particulars: rat, in vivo, read-out: no observed effect dose. As to the method:
as §2

A short description of data set [6]: Toxicology, once daily intravenous administration to Wistar rats. The note with it: rat, in vivo, dose levels of upto 15 mg/kg/day, read-out: no observed effect dose. Here is the method:
The compound of Example 1 has been administered intravenously to groups of six male and six female Wistar rats once daily at dose levels of upto 15 mg/kg/day. The no observed effect dose was 2.5 mg/kg/day.

The subject of data set [7] is release of the excitatory amino acid glutamate. The note with it: statement in words; Leach et al Epilepsia 27, 490-497 1986; Miller et al 1987; cited from earlier work.
Data set [8] has as its system release of the excitatory amino acid aspartate. The note with it: statement in words; Leach et al Epilepsia 27, 490-497 1986; Miller et al 1987; cited from earlier work.

The IC50 is the concentration needed to halve the response being measured. With `COCc1nc(N)nc(N)c1-c1cccc(Cl)c1Cl` [Example 16, 2,4-Diamino-5-(2,3-dichlorophenyl)-6-methoxymethylpyrimidine], the values for the IC50 in data set [1] and in data set [2] were > 100 µM and 3.2 µM, respectively.

For the molecule `COCc1nc(N)nc(N)c1-c1cc(Cl)cc(Cl)c1Cl` [Example 2, 2,4-Diamino-5-(2,3,5-trichlorophenyl)-6-methoxymethylpyrimidine], the figures for the NOAEL in data set [3] and in data set [5] were 14 mg/kg/day and 2.5 mg/kg/day, respectively. The IC50 was determined as 33 µM in data set [1] and 0.56 µM in data set [2]. Besides, the “clearance from the central nervous system” value in data set [4] is reported as “cleared from the central nervous system rapidly”.

Regarding `CCc1nc(N)nc(N)c1-c1ccccc1Cl` [Example 24, 2,4-Diamino-5-(2-chlorophenyl)-6-ethylpyrimidine], the IC50 in data set [1] worked out at 15.1 µM; in data set [2], 2.1 µM.

As for `Cc1nc(N)nc(N)c1-c1cc(Cl)c([N+](=O)[O-])c(Cl)c1Cl` [Example 12, 2,4-diamino-6-methyl-5-(2,3,5-trichloro-4-nitrophenyl) pyrimidine], the IC50 in data set [1] is > 100 µM; in data set [2] it was < 10 µM.

On to `CSCc1nc(N)nc(N)c1-c1cccc(Cl)c1Cl` [Example 20, 2,4-Diamino-5-(2,3-dichlorophenyl)-6-methylthiomethylpyrimidine], for which the IC50 in data set [1] amounted to 17.5 µM; in data set [2] it was 4.2 µM.

`CN1CCN(c2nc(N)c(-c3cc(Cl)cc(Cl)c3Cl)c(C(F)(F)F)n2)CC1` [Example 1, 4-Amino-2-(4-methylpiperazin-1-yl)-5-(2,3,5-trichlorophenyl)-6-trifluoromethylpyrimidine]: the NOAEL in data set [6] is 2.5 mg/kg/day. Further, the figures for the IC50 in data set [1] and in data set [2] were > 100 µM and 1.18 µM, respectively.

In the case of `CN(C)c1nc(N)c(-c2cc(Cl)cc(Cl)c2Cl)c(C(F)(F)F)n1` [Example 8, 4-Amino-2-N,N-dimethylamino-5-(2,3,5-trichlorophenyl)-6-trifluoromethylpyrimidine], the IC50 in data set [1] was > 10 µM; in data set [2], < 10 µM.

With `Nc1nc(N)c(-c2cccc(Cl)c2Cl)c(C(F)(F)F)n1` [Example 14, 2,4-Diamino-5-(2,3-dichlorophenyl)-6-trifluoromethylpyrimidine], the IC50 in data set [1] is > 100 µM; in data set [2], 3.1 µM.

As for `Nc1nc(N)c(-c2cccc(Cl)c2Cl)c(COc2ccccc2)n1` [Example 19, 2,4-Diamino-5-(2,3-dichlorophenyl)-6-phenoxymethylpyrimidine], the IC50 in data set [1] was > 100 µM; in data set [2], 2.6 µM.

`Cc1nc(N)nc(N)c1-c1cc(Cl)cc(Cl)c1Cl` [Example 6, 2,4-Diamino-5-(2,3,5-trichlorophenyl)-6-methylpyrimidine]: the IC50 in data set [1] amounted to 0.51 µM; in data set [2] it was 0.7 µM.

As for `Nc1nnc(-c2cccc(Cl)c2Cl)c(N)n1` [lamotrigine, 3,5-diamino-6-(2,3-dichlorophenyl)-1,2,4-triazine], the “inhibition of the release of glutamate” value in data set [7] is recorded as “shown to inhibit the release”. In addition, the “inhibition of the release of aspartate” value in data set [8] is given as “shown to inhibit the release”.

In the case of `CN1CCN(c2ncc(-c3ccc(Cl)cc3Cl)c(N)n2)CC1` [Example 27, 2-(4-methylpiperazin-1-yl)-4-amino-5-(2,4-dichlorophenyl)pyrimidine], the results for the IC50 in data set [1] and in data set [2] were > 100 µM and ~10 µM, respectively.

For `Nc1nc(N)c(-c2cc(Cl)ccc2Cl)c(C(F)(F)F)n1` [Example 28, 2,4-Diamino-5-(2,5-dichlorophenyl)-6-trifluoromethylpyrimidine], the IC50 in data set [1] was found to be 46.1 µM; in data set [2], 4.6 µM.

Regarding `Nc1ncc(-c2cccc(Cl)c2Cl)c(N)n1` [Example 21, 2,4-Diamino-5-(2,3-dichlorophenyl)pyrimidine], the IC50 in data set [1] amounted to 16 µM; in data set [2], 11.5 µM.

Take `Nc1nc(N)c(-c2cc(Cl)cc(Cl)c2Cl)c(C(F)(F)F)n1` [Example 4, 2,4-Diamino-5-(2,3,5-trichlorophenyl)-6-trifluoromethylpyrimidine]: the IC50 in data set [1] is > 100 µM; in data set [2] it was 0.33 µM.

On to `Nc1nc(N)c(-c2ccc(Cl)cc2Cl)c(COCc2ccccc2)n1` [Example 26, 6-Benzyloxymethyl-2,4-diamino-5-(2,4-dichlorophenyl)pyrimidine], for which the results for the IC50 in data set [1] and in data set [2] were ~10 µM and ~3 µM, respectively.

For `Nc1ncc(-c2cc(Cl)c([N+](=O)[O-])c(Cl)c2Cl)c(N)n1` [Example 5, 2,4-Diamino-5-(4-nitro-2,3,5-trichlorophenyl)pyrimidine], the IC50 in data set [1] is ~100 µM; in data set [2], 3.5 µM.

Regarding `Nc1nc(N)c(-c2cccc(Cl)c2Cl)c(CF)n1` [Example 18, 2,4-Diamino-5-(2,3-dichlorophenyl)-6-fluoromethylpyrimidine], the IC50 was ~100 µM in data set [1] and < 10 µM in data set [2].

`Nc1ncc(-c2ccccc2Cl)c(N)n1` [Example 23, 2,4-Diamino-5-(2-chlorophenyl)pyrimidine]: the IC50 in data set [1] was determined as 20.9 µM; in data set [2], 8.7 µM.

`Nc1nc(N)c(-c2ccc(Cl)cc2Cl)c(C(F)(F)F)n1` [Example 25, 2,4-Diamino-5-(2,4-dichlorophenyl)-6-trifluoromethylpyrimidine]: the IC50 is > 100 µM in data set [1] and 4.1 µM in data set [2].

In the case of `Cc1nc(N2CCN(C)CC2)nc(N)c1-c1cc(Cl)cc(Cl)c1Cl` [Example 11, 4-Amino-6-methyl-2-(4-methylpiperazin-1-yl)-5-(2,3,5-trichlorophenyl)pyrimidine], the IC50 in data set [1] is > 100 µM; in data set [2] it was 4.8 µM.

Take `Cc1nc(N)nc(N)c1-c1cccc(Cl)c1Cl` [Example 15, 2,4-Diamino-5-(2,3-dichlorophenyl)-6-methylpyrimidine]: the IC50 came to 8.7 µM in data set [1] and 2.7 µM in data set [2].

`Nc1nc(N2CCOCC2)ncc1-c1cc(Cl)cc(Cl)c1Cl` [Example 9, 4-Amino-2-N-morpholino-5-(2,3,5-trichlorophenyl)-pyrimidine]: the results for the IC50 in data set [1] and in data set [2] were > 100 µM and < 10 µM, respectively.

As for `CN(C)c1ncc(-c2cc(Cl)cc(Cl)c2Cl)c(N)n1` [Example 10, 4-Amino-2-N,N-dimethylamino-5-(2,3,5-trichlorophenyl)pyrimidine], the IC50 in data set [1] is > 100 µM; in data set [2] it was < 10 µM.

With `Nc1ncc(-c2cccc3ccccc23)c(N)n1` [Example 17, 2,4-Diamino-5-(1-naphthyl)pyrimidine], the IC50 in data set [1] came to 4.9 µM; in data set [2], 2.4 µM.

Turning to `Nc1ncc(-c2cc(Cl)cc(Cl)c2Cl)c(N)n1` [Example 29, 2,4-Diamino-5-(2,3,5-trichlorophenyl)pyrimidine], the IC50 in data set [1] stood at 0.53 µM; in data set [2], 1.57 µM.

For `Nc1nc(N2CCOCC2)nc(C(F)(F)F)c1-c1cc(Cl)cc(Cl)c1Cl` [Example 7, 4-Amino-2-N-morpholino-5-(2,3,5-trichlorophenyl)-6-trifluoromethylpyrimidine], the IC50 is > 10 µM in data set [1] and < 10 µM in data set [2].

Turning to `Cc1nc(N)nc(N)c1-c1ccccc1Cl` [Example 22, 2,4-Diamino-5-(2-chlorophenyl)-6-methyl-pyrimidine], the IC50 in data set [1] was determined as 23.8 µM; in data set [2], 2.8 µM.

For the molecule `Cc1nc(N(C)C)nc(N)c1-c1cc(Cl)cc(Cl)c1Cl` [Example 13, 4-Amino-2-(N,N-dimethylamino)-6-methyl-5-(2,3,5-trichlorophenyl)pyrimidine], the IC50 was > 100 µM in data set [1] and < 10 µM in data set [2].
